Assays:
THP-1 cells = test: CCK-8 cell viability, THP-1; assay type: cell-based; settings: free drug, up to 100 μg/ml, 24 hrs
Procedure: (§1) Pharmacological Studies. First, free PLX4032 toxicity and selectivity were confirmed by adding PLX4032 solutions at different concentrations into 96 well plates with THP-1, 1205Lu and WM35 cells separately (cell seeding density=5,000 cells/well). After 24 hrs incubation, the cells were washed with PBS twice and supplemented with 10 μl CCK-8 in 100 μl RPM-1640 medium in each well. After 2 hrs incubation, the absorbance at 450 nm of each well was measured by a micro-plate reader (TECAN infinite M200 PRO) and converted to the cell viability by normalized to control (tissue culture plates). Next, MTP-BPLP-PLA nanoparticles with and without PLX4032 loaded were dispersed in RPMI-1640 medium in various concentrations, followed by incubation with THP-1, 1205lu and WM35 cells (2,000 cells/well) separately in same conditions for 7 days. At last, MTP-BPLP-PLA-PLX4032 loaded THP-1 cells and pristine THP-1 cells were seeded with 1205lu or WM35 cells (2,000 cells/well) together with different ratios for 7 days, respectively. The cell viabilities were tested by CCK-8 assays as well.

WM35 cells = test: CCK-8 cell viability, WM35; assay type: cell-based, human
Procedure: as §1

1205Lu cells = test: CCK-8 cell viability, 1205Lu; assay type: cell-based, human
Procedure: as §1

[1] = PLX4032 concentration higher than 5 μg/ml, 24 hrs

Which results are given for CCCS(=O)(=O)Nc1ccc(F)c(C(=O)c2c[nH]c3ncc(-c4ccc(Cl)cc4)cc23)c1F [PLX4032]?
THP-1 cell viability reduction (THP-1 cells): no significant viability reduction; free PLX4032 toxicity to WM35 (WM35 cells; 50 ng/ml, 24 hrs incubation): selectively killed; kill of melanomas (WM35) (WM35 cells; [1]): ~100%; free PLX4032 toxicity to 1205Lu (1205Lu cells; 50 ng/ml, 24 hrs incubation): selectively killed; kill of melanomas (1205Lu) (1205Lu cells; [1]): ~100%

From patent US11504434B2, “Compositions and methods for targeted delivery of therapeutic and/or diagnostic agents” (THE PENN STATE RESEARCH FOUNDATION, priority 2016, dated 2022)
